The values that follow come from patent US4769377A, “Adenosine receptor antagonists” (priority 1986, dated 1988).

The target in the first experiment is T1, adenosine A1 receptors (Bos taurus, UniProt P28190).
T1 sequence (P28190 1-326): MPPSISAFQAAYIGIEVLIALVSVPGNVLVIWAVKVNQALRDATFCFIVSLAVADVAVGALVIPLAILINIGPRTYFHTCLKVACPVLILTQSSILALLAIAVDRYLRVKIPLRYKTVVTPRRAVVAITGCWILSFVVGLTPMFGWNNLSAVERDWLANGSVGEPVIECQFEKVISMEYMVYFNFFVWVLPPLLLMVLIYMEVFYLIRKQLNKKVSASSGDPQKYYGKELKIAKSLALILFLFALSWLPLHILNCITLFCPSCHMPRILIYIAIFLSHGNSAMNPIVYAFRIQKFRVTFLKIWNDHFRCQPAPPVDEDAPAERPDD
The experiment can be described thus: inhibition of [^3 H]CHA binding to A1 adenosine receptors in bovine brain membranes.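 Further: Filter-bound radioactivity read by liquid scintillation counting, with dose-inhibition curves built from 4–8 test concentrations, each run in triplicate.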
Conditions: not given
Take `C=CCn1c(=O)c2nc[nH]c2n(CC=C)c1=O` [1,3-diallylX]: the concentration for half-maximal inhibition (IC50) (usually the point on the concentration scale where inhibition reaches its midpoint) stood at 4000 nM.

Regarding `CCn1c(=O)c2nc[nH]c2n(CC)c1=O` [1,3-diethylX], the 50% inhibitory concentration (IC50) amounted to 3000 nM and the Ki (as a rule, a dissociation constant, usually derived from enzyme kinetics or from competition with a known ligand) was 1400 nM. In turn, `Cn1c(=O)c2nc3ccccc3nc2n(C)c1=O` [1,3-dimethylalloxazine] gave an IC50 of 25000 nM. Turning to `Cn1c(=O)[nH]c2ncn(C)c2c1=O` [1,7-dimethylX], the half-maximal inhibitory concentration (IC50) came to 30000 nM and the inhibitory constant (Ki) worked out at 7400 nM. In the case of `CCCn1c(=O)n(CC)c(=O)c2scnc21` [1-ethyl-3-propyl-7-thiaxanthine], the IC50 stood at 8000 nM.

Compound `Cn1c(=O)[nH]c2nc[nH]c2c1=O` [1-methylX] had an IC50 of 6000 nM and a Ki of 2600 nM.

Take `Cn1cnc2c1c(=O)[nH]c(=O)n2C` [3,7-Dimethyl (theobromine), theobromine]: the Ki was 68 nM. As for `Cn1c(=O)[nH]c(=O)c2[nH]cnc21` [3-methylX], the IC50 came out at 150000 nM.

The compound `Cn1c(=O)c2c(ncn2CC(O)CO)n(C)c1=O` (centres unmarked) [7-(2,3-dihydroxypropyl)T] yielded an IC50 of 800000 nM. In turn, `Cn1c(=O)c2c(ncn2CCCl)n(C)c1=O` [7-(2-chloroethyl)T] yielded a half-inhibitory concentration (IC50) of 5000 nM. Compound `Cn1c(=O)c2c(ncn2CCO)n(C)c1=O` [7-(2-hydroxyethyl)T] returned an IC50 of 100000 nM.

The compound `Cn1c(=O)c2[nH]c(-c3ccco3)nc2n(C)c1=O` [8-(2-furyl)T] yielded an IC50 of 18 nM. `Cn1c(=O)c2[nH]c(-c3ccc4ccccc4c3)nc2n(C)c1=O` [8-(2-naphthyl)T] yielded a 50% inhibitory concentration (IC50) of 5 nM.

Consider `Cn1c(=O)c2[nH]c(-c3ccccn3)nc2n(C)c1=O` [8-(2-pyridyl)T], for which the IC50 was found to be 100 nM.

The compound `Cn1c(=O)c2nc(-c3cccs3)[nH]c2n(C)c1=O` [8-(2-thienyl)T] yielded a half-inhibitory concentration (IC50) of 5 nM. On to `COc1ccc(-c2nc3c([nH]2)c(=O)n(C)c(=O)n3C)cc1OC` [8-(3,4-dimethoxyphenyl)T], for which the IC50 turned out to be 20 nM.

In the case of `Cn1c(=O)c2[nH]c(-c3c[nH]c4ccccc34)nc2n(C)c1=O` [8-(3-indolyl)T], the IC50 turned out to be 18 nM. The compound `Cn1c(=O)c2[nH]c(-c3cccnc3)nc2n(C)c1=O` [8-(3-pyridyl)T] yielded a half-inhibitory concentration (IC50) of 50 nM.

The compound `Cn1c(=O)c2[nH]c(-c3ccc(Br)o3)nc2n(C)c1=O` [8-(5-bromo-2-furyl)T] gave an IC50 of 50 nM.

Regarding `Cc1ccc(-c2nc3c([nH]2)c(=O)n(C)c(=O)n3C)s1` [8-(5-methyl-2-thienyl)T], the concentration for half-maximal inhibition (IC50) is 5 nM.

For `Cn1cccc1-c1nc2c([nH]1)c(=O)n(C)c(=O)n2C` [8-(N--methyl-2-pyrrolyl)T], the IC50 is 20 nM.

Regarding `Cn1c(=O)c2[nH]c(-c3cccc(N)c3)nc2n(C)c1=O` [8-(m-aminophenyl)T], affinity was put at a Ki of 5.8 nM. With `Cn1c(=O)c2[nH]c(-c3cccc(Br)c3)nc2n(C)c1=O` [8-(m-bromophenyl)T], the affinity corresponds to a Ki of 4 nM. For `Cn1c(=O)c2[nH]c(-c3cccc(C(=O)O)c3)nc2n(C)c1=O` [8-(m-carboxyphenyl)T], affinity was put at a Ki of 540 nM. Regarding `Cn1c(=O)c2[nH]c(-c3cccc(O)c3)nc2n(C)c1=O` [8-(m-hydroxyphenyl)T], the inhibition constant (Ki) worked out at 3.1 nM. `Cn1c(=O)c2[nH]c(-c3cccc([N+](=O)[O-])c3)nc2n(C)c1=O` [8-(m-nitrophenyl)T]: the inhibition constant (Ki) was 22 nM. Take `CCCc1nc2c([nH]1)c(=O)n(C)c(=O)n2C` [8-(n-propyl)T]: the 50% inhibitory concentration (IC50) was determined as 100 nM. On to `Cn1c(=O)c2[nH]c(-c3ccccc3C(=O)O)nc2n(C)c1=O` [8-(o-carboxyphenyl)T], for which the inhibitory constant (Ki) turned out to be 21000 nM.

Take `Cn1c(=O)c2[nH]c(-c3ccccc3F)nc2n(C)c1=O` [8-(o-fluorophenyl)T]: the IC50 is 12 nM. In turn, `Cn1c(=O)c2[nH]c(-c3ccccc3O)nc2n(C)c1=O` [8-(o-hydroxyphenyl)T] returned an inhibition constant Ki of 4.8 nM. As for `Cc1ccccc1-c1nc2c([nH]1)c(=O)n(C)c(=O)n2C` [8-(o-methylphenyl)T], the IC50 is 6 nM. `Cn1c(=O)c2[nH]c(-c3ccccc3[N+](=O)[O-])nc2n(C)c1=O` [8-(o-nitrophenyl)T] yielded an inhibition constant Ki of 49 nM. On to `Cn1c(=O)c2[nH]c(-c3ccc(Br)cc3)nc2n(C)c1=O` [8-(p-bromophenyl)T], for which the IC50 came to 0.8 nM and the inhibitory constant (Ki) is 0.34 nM.

The compound `Cn1c(=O)c2[nH]c(-c3ccc(C(=O)O)cc3)nc2n(C)c1=O` [8-(p-carboxyphenyl)T] yielded a Ki of 18 nM.

`Cn1c(=O)c2[nH]c(-c3ccc(O)cc3)nc2n(C)c1=O` [8-(p-hydroxyphenyl)T] came in with a Ki of 2 nM. `Cn1c(=O)c2[nH]c(-c3ccc([N+](=O)[O-])cc3)nc2n(C)c1=O` [8-(p-nitrophenyl)T]: affinity was put at a Ki of 4 nM.

Consider `Cn1c(=O)c2[nH]c(-c3ccc(S(=O)(=O)O)cc3)nc2n(C)c1=O` [8-(p-sulfo-phenyl)T], for which the IC50 came to 500 nM.

The experiment is the same for the next values; noted with them: Table II; vs [^3 H-CHA] in bovine brain.
Take `C=CCn1c(=O)c2[nH]c(-c3ccc(Cl)cc3N)nc2n(CC=C)c1=O` [1,3-diallyl-8-(2-amino-4-chlorophenyl)X, 1,3-diallyl-8-(2-amino-4-chlorophenyl)xanthine]: the half-inhibitory concentration (IC50) was 0.8 nM. Consider `CCn1c(=O)c2[nH]c(-c3ccc(Br)cc3)nc2n(CC)c1=O` [1,3-diethyl-8-(p-bromophenyl)X], for which the IC50 is 1 nM. Same read-out and setting: the value for `C=CCn1c(=O)c2[nH]c(-c3ccc(Cl)cc3N)nc2n(C)c1=O` [1-allyl-3-methyl-8-(2-amino-4-chlorophenyl)X] was 2 nM; that for `C=CCn1c(=O)c2[nH]c(-c3ccc(C)cc3N)nc2n(C)c1=O` [1-allyl-3-methyl-8-(2-amino-4-methylphenyl)X] was 7 nM; that for `C=CCn1c(=O)c2[nH]c(-c3ccccc3)nc2n(C)c1=O` [1-allyl-3-methyl-8-phenylX] was 4 nM. For `Cn1c(=O)[nH]c2nc(-c3ccccc3)[nH]c2c1=O` [1-methyl-8-phenylX], the half-maximal inhibitory concentration (IC50) came to 2.5 nM. Same read-out and setting: the value for `Cn1c(=O)c2[nH]c(-c3cccc4ccccc34)nc2n(C)c1=O` [8-(1-naphthyl)T] was 80 nM; that for `COc1ccc(-c2nc3c([nH]2)c(=O)n(C)c(=O)n3C)c(OC)c1` [8-(2,4-dimethoxyphenyl)T] was 200 nM. As for `Cc1cc(O)cc(C)c1-c1nc2c([nH]1)c(=O)n(C)c(=O)n2C` [8-(2,6-dimethyl-4-hydroxyphenyl)T], the IC50 was 30 nM. On to `Cc1ccc(-c2nc3c([nH]2)c(=O)n(C)c(=O)n3C)c(N)c1` [8-(2-amino-4-methylphenyl)T], for which the 50% inhibitory concentration (IC50) is 10 nM.

Turning to `Cn1c(=O)c2[nH]c(-c3ccc(Cl)c(Cl)c3)nc2n(C)c1=O` [8-(3,4-dichlorophenyl)T], the IC50 is 5 nM. `COc1cc(OC)cc(-c2nc3c([nH]2)c(=O)n(C)c(=O)n3C)c1` [8-(3,5-dimethoxyphenyl)T]: the IC50 came to 500 nM. The same measure, in the same setting: to `Cn1c(=O)c2[nH]c(-c3ccoc3)nc2n(C)c1=O` [8-(3-furyl)T] belongs 4 nM; to `Cn1c(=O)c2[nH]c(-c3ccncc3)nc2n(C)c1=O` [8-(4-pyridyl)T], 35 nM; to `Cn1c(=O)c2[nH]c(-c3cccc(N)c3)nc2n(C)c1=O` [8-(m-aminophenyl)T], 10 nM. Compound `Cn1c(=O)c2[nH]c(-c3cccc(Br)c3)nc2n(C)c1=O` [8-(m-bromophenyl)T] showed an IC50 of 10 nM.

The compound `Cn1c(=O)c2[nH]c(-c3cccc(C(=O)O)c3)nc2n(C)c1=O` [8-(m-carboxyphenyl)T] gave a concentration for half-maximal inhibition (IC50) of 1000 nM. For the compound `CN(C)c1cccc(-c2nc3c([nH]2)c(=O)n(C)c(=O)n3C)c1` [8-(m-dimethylaminophenyl)T], the 50% inhibitory concentration (IC50) came out at 80 nM. `Cn1c(=O)c2[nH]c(-c3cccc(F)c3)nc2n(C)c1=O` [8-(m-fluorophenyl)T] yielded a 50% inhibitory concentration (IC50) of 4 nM.

`Cn1c(=O)c2[nH]c(-c3cccc(O)c3)nc2n(C)c1=O` [8-(m-hydroxyphenyl)T] came in with an IC50 of 6 nM.

`COc1cccc(-c2nc3c([nH]2)c(=O)n(C)c(=O)n3C)c1` [8-(m-methoxyphenyl)T] came in with an IC50 of 20 nM. In the case of `Cc1cccc(-c2nc3c([nH]2)c(=O)n(C)c(=O)n3C)c1` [8-(m-methylphenyl)T], the IC50 is 13 nM. `Cn1c(=O)c2[nH]c(-c3cccc([N+](=O)[O-])c3)nc2n(C)c1=O` [8-(m-nitrophenyl)T] registered an IC50 of 50 nM. Still for that read-out and setting: the value for `Cn1c(=O)c2[nH]c(-c3ccccc3C(=O)O)nc2n(C)c1=O` [8-(o-carboxyphenyl)T] was 2500 nM; that for `Cn1c(=O)c2[nH]c(-c3ccccc3O)nc2n(C)c1=O` [8-(o-hydroxyphenyl)T] was 10 nM; that for `COc1ccccc1-c1nc2c([nH]1)c(=O)n(C)c(=O)n2C` [8-(o-methoxyphenyl)T] was 350 nM. `Cn1c(=O)c2[nH]c(-c3ccccc3[N+](=O)[O-])nc2n(C)c1=O` [8-(o-nitrophenyl)T] had a half-inhibitory concentration (IC50) of 80 nM. Regarding `CCCCOc1ccc(-c2nc3c([nH]2)c(=O)n(C)c(=O)n3C)cc1` [8-(p-butoxyphenyl)T], the IC50 turned out to be 4 nM. Same read-out and setting: the value for `Cn1c(=O)c2[nH]c(-c3ccc(C(=O)O)cc3)nc2n(C)c1=O` [8-(p-carboxyphenyl)T] was 50 nM; that for `CN(C)c1ccc(-c2nc3c([nH]2)c(=O)n(C)c(=O)n3C)cc1` [8-(p-dimethylaminophenyl)T] was 1.8 nM.

Regarding `CCOc1ccc(-c2nc3c([nH]2)c(=O)n(C)c(=O)n3C)cc1` [8-(p-ethoxyphenyl)T], the half-maximal inhibitory concentration (IC50) was found to be 2 nM. Compound `CCc1ccc(-c2nc3c([nH]2)c(=O)n(C)c(=O)n3C)cc1` [8-(p-ethylphenyl)T] showed an IC50 of 0.8 nM.

For `Cn1c(=O)c2[nH]c(-c3ccc(F)cc3)nc2n(C)c1=O` [8-(p-fluorophenyl)T], the IC50 was determined as 3.5 nM. For the compound `Cn1c(=O)c2[nH]c(-c3ccc(O)cc3)nc2n(C)c1=O` [8-(p-hydroxyphenyl)T], the IC50 came out at 2 nM.

On to `Cn1c(=O)c2[nH]c(-c3ccc(I)cc3)nc2n(C)c1=O` [8-(p-iodophenyl)T], for which the IC50 came to 1.3 nM.

As for `CC(C)c1ccc(-c2nc3c([nH]2)c(=O)n(C)c(=O)n3C)cc1` [8-(p-isopropylphenyl)T], the IC50 was 2.5 nM. Consider `COc1ccc(-c2nc3c([nH]2)c(=O)n(C)c(=O)n3C)cc1` [8-(p-methoxyphenyl)T], for which the IC50 was determined as 1.5 nM. On to `Cc1ccc(-c2nc3c([nH]2)c(=O)n(C)c(=O)n3C)cc1` [8-(p-methylphenyl)T], for which the IC50 was 0.8 nM. Same read-out and setting: to `CSc1ccc(-c2nc3c([nH]2)c(=O)n(C)c(=O)n3C)cc1` [8-(p-methylthiophenyl)T] belongs 2 nM.

With `Cn1c(=O)c2[nH]c(-c3ccc([N+](=O)[O-])cc3)nc2n(C)c1=O` [8-(p-nitrophenyl)T], the half-maximal inhibitory concentration (IC50) was determined as 8 nM. The same measure, in the same setting: the value for `Cn1c(=O)c2[nH]c(-c3ccc(-c4ccccc4)cc3)nc2n(C)c1=O` [8-(p-phenylphenyl)T] was 3.5 nM.

The same experiment, now with this note: bovine brain.
For the compound `C=CCn1c(=O)c2[nH]c(-c3ccc(Cl)cc3N)nc2n(CC=C)c1=O` [1,3-diallyl-8-(2-amino-4-chlorophenyl)X, 1,3-diallyl-8-(2-amino-4-chlorophenyl)xanthine], the “adenosine receptor blocking activity (in words)” value was “useful activity as an adenosine receptor antagonist”.
